Laboratory results as given in article PMC10010643 (Cancer Chemotherapy and Pharmacology, 2023).
Several values for one entry are separate records, joined by “and”; a condition that tells them apart may be missing. Identical values can stand only once. Like-named read-outs stand apart in the source and are kept apart here.

Key:
[1] = Urine PK, Part A single oral doses in healthy participants; format: in vivo, human; settings: for CL renal: human
Experimental: A further two cohorts were recruited. […] Each individual participated in one treatment period only, with the exception of the food-effect cohort (cohort A3) in which there were two treatment periods separated by at least 7 days washout. Participants resided at the Clinical Research Unit (CRU) from 1 day ahead of dosing (day − 1) to day 3 and returned for a follow-up visit 5–7 days after their final dose. For all cohorts, doses were administered in the fasted state in the morning of day 1 of Treatment Period 1. In the food-effect cohort, doses were given 30 min after the start of a high-fat breakfast (973 calories total: approximately 150 protein calories, 250 carbohydrate calories, and 500–600 fat calories) on day 1 of Treatment Period 2. For cohorts A1 to A5 in Treatment Period 1, dosing occurred such that one pair (one active and one placebo) were dosed at least 24 h before the remaining participants. Continuation to dose those who remained was at the investigator’s discretion. Escalating doses were administered following satisfactory sponsor and investigator review of the safety and tolerability data (up to 48 h post-final dose) and PK data (up to 24 h post-final dose) from the lower dose levels.
Urine was collected by spot collection in Part A only before dosing and between 0–6, 6–12, 12–24, and 24–48 h post-dose. Blood and urine aliquots were stored in polypropylene tubes at − 70 °C until bioanalysis.
Noncompartmental PK analysis was performed on individual plasma and urine concentration data, using Phoenix® WinNonlin® 8.1 software (Certara USA Inc., Princeton NJ). Plasma PK parameter endpoints for Part A included area under the plasma concentration–time curve (AUC) from time 0 to infinity (AUC0–∞), AUC from time 0 to the time of the last quantifiable concentration (AUC0–tlast), maximum observed plasma concentration (Cmax), time of the maximum observed plasma concentration (Tmax), terminal half-life in plasma (t½), apparent total plasma clearance (CL/F), and apparent volume of distribution (Vz/F). Urine PK parameters calculated in Part A included amount of drug excreted in urine (Ae), percentage of dose excreted unchanged in urine (fe) and renal clearance (CLR).

[2] = tested on: panel of different targets including enzymes, receptors, and ion channels; parameters: method as in PMID 36154172; settings: cited from earlier work
[3] = Safety and tolerability, Part B multiple ascending-dose phase in healthy participants; format: in vivo, human; settings: 50 mg BID
Experimental: Following review of safety, tolerability, and PK data from cohorts A1–A6, participants received twice-daily doses (BID) under fasted conditions on days 1–9 and a final single dose in the morning of day 10. […] There was one treatment period and all participants stayed at the CRU from day − 1 until the morning of day 11 (24 h after the final dose on day 10). All were to return for a follow-up visit 5–7 days after their final dose.
Safety and tolerability assessments included adverse event (AE) monitoring, physical examinations, laboratory assessments (hematology, clinical chemistry, and urinalysis), vital signs (blood pressure, pulse rate, and body temperature) and ECG.
No formal statistical assessment was performed for the safety analysis.

[4] = single dose 5 mg (1 × 5 mg), fasted
[5] = single dose 20 mg (4 × 5 mg), fasted
[6] = single dose 50 mg (1 × 50 mg), fasted
[7] = single dose 50 mg (1 × 50 mg), fed
[8] = single dose 50 mg (10 × 5 mg), fasted
[9] = single dose 100 mg (2 × 50 mg), fasted
[10] = single dose 200 mg (4 × 50 mg), fasted
[11] = single dose 400 mg (8 × 50 mg), fasted

## OC[C@H]1O[C@H](Sc2cncc(Br)c2)[C@H](O)[C@@H](n2cc(-c3cc(F)c(F)c(F)c3)nn2)[C@H]1O [GB1211]
[1]; 5–50 mg dose range (5 mg capsule)
  Geometric mean fe(0–48 h), range across doses: 26.8–30.0%
[1]; 50–400 mg dose range (50 mg capsules; fasted state)
  Geometric mean fe(0–48 h), range across doses: 10.5–18.7%
[1]; CLR greater than GFR corrected for fu
  Renal elimination mechanism: undergoes active secretion in the kidney
[1]; GFR approximately 7.5 L/h, fu 5.34%
  Glomerular filtration rate corrected for the fraction of unbound GB1211 in plasma: approximately 0.4 L/h
[1]; urine and plasma, po, single oral dose, read-out: Geometric mean CLR, range across all doses
  CL renal: 30.5 to 44.5 mL/min
[1]; urine, oral, 5 mg, single dose 5 mg (1 × 5 mg), fasted, read-out: CLR, geometric mean (CV%) (converted)
  CL renal: 35.3 mL/min
[1]; urine, oral, 20 mg, single dose 20 mg (4 × 5 mg), fasted, read-out: CLR, geometric mean (CV%) (converted)
  CL renal: 31.7 mL/min
[1]; urine, oral, 50 mg, single dose 50 mg (1 × 50 mg), fasted, read-out: CLR, geometric mean (CV%) (converted)
  CL renal: 37.3 mL/min
[1]; urine, oral, 50 mg, single dose 50 mg (1 × 50 mg), fed, read-out: CLR, geometric mean (CV%) (converted)
  CL renal: 36.7 mL/min
[1]; urine, oral, 50 mg, single dose 50 mg (10 × 5 mg), fasted, read-out: CLR, geometric mean (CV%) (converted)
  CL renal: 32.3 mL/min
[1]; urine, oral, 100 mg, single dose 100 mg (2 × 50 mg), fasted, read-out: CLR, geometric mean (CV%) (converted)
  CL renal: 43.2 mL/min
[1]; urine, oral, 200 mg, single dose 200 mg (4 × 50 mg), fasted, read-out: CLR, geometric mean (CV%) (converted)
  CL renal: 30.5 mL/min
[1]; urine, oral, 400 mg, single dose 400 mg (8 × 50 mg), fasted, read-out: CLR, geometric mean (CV%) (converted)
  CL renal: 44.5 mL/min
[1]; [4]
  Ae (0–48 h), geometric mean (CV%): 1.43 (27.0) mg
  fe (0–48 h), geometric mean (CV%): 28.7 (27.0) %
[1]; [5]
  Ae (0–48 h), geometric mean (CV%): 6.00 (19.7) mg
  fe (0–48 h), geometric mean (CV%): 30.0 (19.7) %
[1]; [6]
  Ae (0–48 h), geometric mean (CV%): 9.34 (44.1) mg
  fe (0–48 h), geometric mean (CV%): 18.7 (44.1) %
[1]; [7]
  Ae (0–48 h), geometric mean (CV%): 10.9 (33.5) mg
  fe (0–48 h), geometric mean (CV%): 21.7 (33.5) %
[1]; [8]
  Ae (0–48 h), geometric mean (CV%): 13.4 (38.7) mg
  fe (0–48 h), geometric mean (CV%): 26.8 (38.7) %
[1]; [9]
  Ae (0–48 h), geometric mean (CV%): 15.3 (34.8) mg
  fe (0–48 h), geometric mean (CV%): 15.3 (34.8) %
[1]; [10]
  Ae (0–48 h), geometric mean (CV%): 21.0 (28.0) mg
  fe (0–48 h), geometric mean (CV%): 10.5 (28.0) %
[1]; [11]
  Ae (0–48 h), geometric mean (CV%): 50.7 (33.6) mg
  fe (0–48 h), geometric mean (CV%): 12.7 (33.6) %
[2]
  Safety profile against a panel of different targets: favorable safety profile
[3]
  Number of TEAEs: 8
  Participants discontinued due to TEAEs: 0 n (%)
  Participants with SAEs: 0 n (%)
  Participants with TEAEs: 4 (50.0) n (%) and 4 (50.0%) n (%)
  Severity (all TEAEs): Mild: 2 (25.0) n (%)
  Severity (all TEAEs): Moderate: 2 (25.0) n (%)
  Severity (all TEAEs): Severe: 0 n (%)
  Severity (all TEAEs): Total: 4 (50.0) n (%)
  Severity (possibly related to study treatment): Mild: 2 (25.0) n (%)
  Severity (possibly related to study treatment): Moderate: 2 (25.0) n (%)
  Severity (possibly related to study treatment): Severe: 0 n (%)
  Severity (possibly related to study treatment): Total: 4 (50.0) n (%)
  TEAE Abdominal distension, participants: 0 n (%)
  TEAE Abdominal pain upper, participants: 0 n (%)
  TEAE Abdominal pain, participants: 0 n (%)
  TEAE Arthralgia, participants: 0 n (%)
  TEAE Constipation, participants: 0 n (%)
  TEAE Dysuria, no. of AEs: 1
  TEAE Dysuria, participants: 1 (12.5%) n (%)
  TEAE Gastrointestinal disorders, participants: 0 n (%)
  TEAE Headache, no. of AEs: 5
  TEAE Headache, participants: 4 (50.0%) n (%)
  TEAE Injury, poisoning and procedural complications, no. of AEs: 1
  TEAE Injury, poisoning and procedural complications, participants: 1 (12.5%) n (%)
  TEAE Limb injury, no. of AEs: 1
